ChEMBL document CHEMBL1909046, “DrugMatrix in vitro pharmacology data”

Experiments:
[1] = biological target: T1, Cholecystokinin receptor type A (Homo sapiens, UniProt P32238); format: cell membranes, Membrane; details: 1321-n1; also: in other assays of this panel Not Active means under 50% inhibition at 10 µM
T1 sequence (P32238 whole entry): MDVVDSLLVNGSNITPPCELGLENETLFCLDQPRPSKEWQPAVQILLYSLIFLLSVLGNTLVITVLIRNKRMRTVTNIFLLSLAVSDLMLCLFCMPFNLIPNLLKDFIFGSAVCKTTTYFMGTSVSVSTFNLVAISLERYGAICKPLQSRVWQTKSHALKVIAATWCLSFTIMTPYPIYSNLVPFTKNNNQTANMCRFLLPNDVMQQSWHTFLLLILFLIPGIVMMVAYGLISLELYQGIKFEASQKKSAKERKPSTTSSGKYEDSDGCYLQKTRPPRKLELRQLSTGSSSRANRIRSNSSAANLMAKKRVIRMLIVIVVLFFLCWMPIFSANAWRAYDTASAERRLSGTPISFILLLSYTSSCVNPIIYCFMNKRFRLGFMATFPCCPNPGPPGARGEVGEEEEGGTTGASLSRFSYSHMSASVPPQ

Melanocortin receptor 3 = Melanocortin receptor 3 (Homo sapiens, UniProt P41968); format: cell membranes, HEK293, Membrane; details: hek293; also: in other assays of this panel Not Active means under 50% inhibition at 10 µM
[2] = DRUGMATRIX: Phosphodiesterase PDE3 enzyme inhibition (substrate: [3H]cAMP + cAMP); format: tissue-based, Homo sapiens; details: platelet; Not Active = under 50% inhibition at 10 µM
Cathepsin G = biological target: T2, Cathepsin G (Homo sapiens, UniProt P08311); assay: biochemical; format: tissue-based, Neutrophil; details: neutrophil;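 also: inhibition of Cathepsin G enzyme activity, tested on an AMC-conjugated peptide substrate; in other assays of this panel Not Active means under 50% inhibition at 10 µM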
T2 sequence (P08311 whole entry): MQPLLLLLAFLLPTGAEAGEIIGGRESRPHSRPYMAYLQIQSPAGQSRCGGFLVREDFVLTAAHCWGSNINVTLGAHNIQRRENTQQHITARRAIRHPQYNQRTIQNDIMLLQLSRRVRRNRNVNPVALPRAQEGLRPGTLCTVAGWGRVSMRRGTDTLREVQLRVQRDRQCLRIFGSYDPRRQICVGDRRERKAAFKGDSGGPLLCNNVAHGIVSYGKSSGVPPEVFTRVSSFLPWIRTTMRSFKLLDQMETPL

[3] = biological target: Protein kinase C alpha type (Homo sapiens, UniProt P17252); format: cell-based; details: sf9;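 also: inhibition of PKCalpha kinase activity measured in an enzyme assay with histone as the phosphorylation substrate; in other assays of this panel Not Active means under 50% inhibition at 10 µM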
[4] = biological target: Epidermal growth factor receptor (Homo sapiens, UniProt P00533); assay: DRUGMATRIX: Protein Tyrosine Kinase, EGF Receptor enzyme inhibition (substrate: Poly(Glu:Tyr)); format: cell-based, Insect cells; details: insect cells; Not Active = under 50% inhibition at 10 µM
[5] = biological target: 5-hydroxytryptamine receptor 1B (Rattus norvegicus, UniProt P28564); format: cell membranes, Wistar, Cerebral cortex, Membrane; also: in other assays of this panel Not Active means under 50% inhibition at 10 µM
5-hydroxytryptamine receptor 1B, sequence (P28564 whole entry): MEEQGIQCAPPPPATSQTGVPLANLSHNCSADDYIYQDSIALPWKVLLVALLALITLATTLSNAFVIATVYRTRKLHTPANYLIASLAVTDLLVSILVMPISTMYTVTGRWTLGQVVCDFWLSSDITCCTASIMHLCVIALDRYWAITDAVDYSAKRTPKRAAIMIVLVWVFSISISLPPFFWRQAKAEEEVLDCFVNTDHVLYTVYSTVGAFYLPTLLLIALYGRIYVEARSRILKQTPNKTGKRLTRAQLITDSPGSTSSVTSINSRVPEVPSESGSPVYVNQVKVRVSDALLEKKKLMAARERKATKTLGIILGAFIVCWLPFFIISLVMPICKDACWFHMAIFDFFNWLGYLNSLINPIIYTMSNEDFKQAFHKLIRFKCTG

Epidermal growth factor receptor, sequence (P00533 whole entry): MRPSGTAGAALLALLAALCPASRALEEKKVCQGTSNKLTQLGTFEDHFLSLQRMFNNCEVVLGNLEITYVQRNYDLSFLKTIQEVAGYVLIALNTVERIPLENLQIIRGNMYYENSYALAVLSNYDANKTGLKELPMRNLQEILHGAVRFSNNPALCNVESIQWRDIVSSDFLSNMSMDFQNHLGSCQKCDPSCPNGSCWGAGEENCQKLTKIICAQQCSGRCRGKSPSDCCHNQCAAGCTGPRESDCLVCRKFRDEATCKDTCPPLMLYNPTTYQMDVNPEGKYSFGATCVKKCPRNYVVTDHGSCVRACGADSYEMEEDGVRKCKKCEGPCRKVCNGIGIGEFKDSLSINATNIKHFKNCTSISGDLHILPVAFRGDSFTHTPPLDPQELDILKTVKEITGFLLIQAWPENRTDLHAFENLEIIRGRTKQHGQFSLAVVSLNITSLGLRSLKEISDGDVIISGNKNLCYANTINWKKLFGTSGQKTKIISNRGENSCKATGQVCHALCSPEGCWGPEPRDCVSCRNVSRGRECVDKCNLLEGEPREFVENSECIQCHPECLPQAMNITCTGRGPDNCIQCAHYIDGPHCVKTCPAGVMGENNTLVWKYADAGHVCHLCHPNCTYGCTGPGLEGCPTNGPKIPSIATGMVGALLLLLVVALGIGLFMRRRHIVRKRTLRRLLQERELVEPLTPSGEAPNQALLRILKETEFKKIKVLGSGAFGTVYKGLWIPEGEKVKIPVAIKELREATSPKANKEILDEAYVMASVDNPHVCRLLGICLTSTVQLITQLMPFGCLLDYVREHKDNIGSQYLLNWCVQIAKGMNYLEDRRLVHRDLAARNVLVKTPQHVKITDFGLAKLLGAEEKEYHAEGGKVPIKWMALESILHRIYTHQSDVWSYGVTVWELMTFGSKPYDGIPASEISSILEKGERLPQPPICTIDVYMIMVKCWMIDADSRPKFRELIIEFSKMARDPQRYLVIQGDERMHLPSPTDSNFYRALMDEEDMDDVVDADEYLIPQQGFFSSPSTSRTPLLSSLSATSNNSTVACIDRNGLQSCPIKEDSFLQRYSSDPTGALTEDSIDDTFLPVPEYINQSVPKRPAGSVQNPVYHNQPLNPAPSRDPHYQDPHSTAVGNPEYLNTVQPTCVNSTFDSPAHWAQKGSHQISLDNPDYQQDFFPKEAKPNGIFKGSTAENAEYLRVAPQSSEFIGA
Melanocortin receptor 3, sequence (P41968 whole entry): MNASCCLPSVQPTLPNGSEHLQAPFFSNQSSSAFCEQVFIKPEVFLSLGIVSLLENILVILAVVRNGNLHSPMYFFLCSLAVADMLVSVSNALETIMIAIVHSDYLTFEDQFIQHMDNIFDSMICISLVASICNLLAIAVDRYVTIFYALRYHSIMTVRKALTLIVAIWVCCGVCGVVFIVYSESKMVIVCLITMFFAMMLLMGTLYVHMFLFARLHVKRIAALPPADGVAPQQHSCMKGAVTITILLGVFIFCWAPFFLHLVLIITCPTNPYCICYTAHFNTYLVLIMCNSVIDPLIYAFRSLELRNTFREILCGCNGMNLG

CCC1(c2ccccc2)C(=O)NC(=O)NC1=O [PHENOBARBITAL]
Not Active: IC50 [1] | IC50 (Melanocortin receptor 3) | IC50 [2] | Ki [2] | IC50 (Cathepsin G) | IC50 [3] | IC50 [4] | IC50 [5]

O=C(O)COC(=O)Cc1ccccc1Nc1c(Cl)cccc1Cl [ACECLOFENAC]
Not Active: IC50 [1] | IC50 (Melanocortin receptor 3) | IC50 [2] | Ki [2] | IC50 (Cathepsin G) | IC50 [3] | IC50 [4] | IC50 [5]
